Reference: US11547681B2, “N-acylethanolamide derivatives and uses thereof” (ELIEM THERAPEUTICS, INC., priority 2016, dated 2023)
Where two headings read alike, the source gives them in different places. Values belong to the compound of their own block, whether it stands above or below them.

Key:
in vitro [1] = test: in vitro
Method: (§1) The reaction mixture, minus cofactors, was prepared as described below. The test article was added into the reaction mixture at a final concentration of 1 μM. […] An aliquot of the reaction mixture (without cofactor cocktail) was equilibrated in a shaking water bath at 37° C. for 3 minutes. The reaction was initiated by the addition of cofactor cocktail, and the mixture was incubated in a shaking water bath at 37° C. Aliquots (100 μL) were withdrawn at 0, 10, 20, 30, and 60 minutes. All samples were immediately combined with 400 uL of icecold 50/50 acetonitrile/H2O containing 0.1% formic acid and internal standard to terminate the reaction. The samples were then mixed and centrifuged to precipitate proteins. Calibration standards were prepared in matched matrix. All samples and standards were assayed by LC-MS/MS using electrospray ionization for both the dosed prodrug I-9 and the expected drug (PEA). Analytical conditions are outlined in Appendix 4-1. The test article concentration at each time point was compared to the test article concentration at time 0 to determine the percent remaining at each time point. Half-lives were calculated using GraphPad software, fitting to single-phase exponential decay equation.
(§2) Reaction mixture, minus cofactors, was prepared as described below. Test article was added into the reaction mixture at a final concentration of 1 μM. […] An aliquot of the reaction mixture (without cofactor cocktail) was equilibrated in a shaking water bath at 37° C. for 3 minutes. The reaction was initiated by the addition of cofactor cocktail, and the mixture was incubated in a shaking water bath at 37° C. Aliquots (100 μL) were withdrawn at 0, 10, 20, 30, and 60 minutes. Test article samples were immediately combined with 300 μL of ice-cold acetonitrile containing 1% formic acid. Control samples were immediately combined with 400 μL of ice-cold 50/50 acetonitrile (ACN)/dH2O containing 0.1% formic acid and internal standard to terminate the reaction. Samples were then mixed and centrifuged to precipitate proteins. Calibration standards were prepared in matched matrix. Samples and standards were assayed by LC-MS/MS using electrospray ionization for both the dosed prodrug and the expected drug (PEA). Analytical conditions are outlined in Appendix 8-1. Test article concentration at each time point was compared to test article concentration at time 0 to determine the percent remaining at each time point. Halflives were calculated using GraphPad software, fitting to a single-phase exponential decay equation.
as §2, with “for 5” for “for 3”, “minutes. Reaction” for “minutes. The reaction”, “and” for “and the”, “both” for “both the”, “Appendix 10-1.” for “Appendix 8-1.”
(§3) Reaction mixture, minus cofactors, was prepared as described below.

in vitro [2] = test: in vitro; remark: listed apart in the source
Method: as §1, §2
as §2, with “for 5” for “for 3”, “minutes. Reaction” for “minutes. The reaction”, “and” for “and the”, “both” for “both the”, “Appendix 10-1.” for “Appendix 8-1.”
as §3

in vitro [3] = conditions: s9
Method: Reaction mixture, minus cofactors, was prepared as described below. Test article was added into the reaction mixture at a final concentration of 1 μM. […] An aliquot of the reaction mixture (without cofactor cocktail) was equilibrated in a shaking water bath at 37° C. for 3 minutes. The reaction was initiated by the addition of cofactor cocktail (see below), and the mixture was then incubated in a shaking water bath at 37° C. Aliquots (100 μL) were withdrawn 0, 10, 20, 30 and 60 minutes. Test article samples were immediately combined with 300 μL of ice-cold acetonitrile containing 1% formic acid. Control samples were immediately combined with 400 μL of ice-cold 50/50 acetonitrile (ACN)/dH2O containing 0.1% formic acid and internal standard to terminate the reaction. Samples were then mixed and centrifuged to precipitate proteins. Calibration standards were prepared in matched matrix. Samples and standards were assayed by LC-MS/MS using electrospray ionization for both the dosed prodrug and the expected drug (PEA). Analytical conditions are outlined in Appendix 8-1. Test article concentration at each time point was compared to the test article concentration at time 0 to determine the percent remaining at each time point. Half-lives were calculated using GraphPad software, fitting to a single-phase exponential decay equation.
Reaction mixture, minus cofactors, was prepared as described below. Test article was added into the reaction mixture at a final concentration of 1 μM. […] An aliquot of the reaction mixture (without cofactor cocktail) was equilibrated in a shaking water bath at 37° C. for 5 minutes. Reaction was initiated by the addition of cofactor cocktail (see below), and mixture was then incubated in a shaking water bath at 37° C. Aliquots (100 μL) were withdrawn at 0, 10, 20, 30, and 60 minutes. Test article samples were immediately combined with 300 μL of ice-cold acetonitrile containing 1% formic acid. Control samples were immediately combined with 400 μL of ice-cold 50/50 acetonitrile (ACN)/dH2O containing 0.1% formic acid and internal standard to terminate the reaction. Samples were then mixed and centrifuged to precipitate proteins. Calibration standards were prepared in matched matrix. Samples and standards were assayed by LC-MS/MS using electrospray ionization for both dosed prodrug and expected drug (PEA). Analytical conditions are outlined in Appendix 10-1. Test article concentration at each time point was compared to test article concentration at time 0 to determine the percent remaining at each time point. Half-lives were calculated using GraphPad software, fitting to a single-phase exponential decay equation.
The reaction mixture, minus cofactors, was prepared as described below. Test article was added into the reaction mixture at a final concentration of 1 μM. […] An aliquot of the reaction mixture (without cofactor cocktail) was equilibrated in a shaking water bath at 37° C. for 3 minutes. Reaction was initiated by the addition of cofactor cocktail (see below), and the mixture was then incubated in a shaking water bath at 37° C. Aliquots (100 μL) were withdrawn at 0, 10, 20, 30, and 60 minutes. Test article samples were immediately combined with 300 μL of ice-cold acetonitrile containing 1% formic acid. Control samples were immediately combined with 400 μL of ice-cold 50/50 acetonitrile (ACN)/dH2O containing 0.1% formic acid and internal standard to terminate the reaction. Samples were then mixed and centrifuged to precipitate proteins. Calibration standards were prepared in matched matrix. Samples and standards were assayed by LC-MS/MS using electrospray ionization for both dosed prodrug and expected drug (PEA). Analytical conditions are outlined in Appendix 13-1. Test article concentration at each time point was compared to the test article concentration at time 0 to determine the percent remaining at each time point.

in vitro [4] = test: in vitro; remark: listed apart in the source
Method: as §2
as §2, with “for 5” for “for 3”, “minutes. Reaction” for “minutes. The reaction”, “and” for “and the”, “both” for “both the”, “Appendix 10-1.” for “Appendix 8-1.”
(§4) Reaction mixture, minus cofactors, was prepared as described below. Test article was added into the reaction mixture at a final concentration of 1 μM. […] An aliquot of the reaction mixture (without cofactor cocktail) was equilibrated in a shaking water bath at 37° C. for 3 minutes. Reaction was initiated by the addition of cofactor cocktail, and the mixture was incubated in a shaking water bath at 37° C. Aliquots (100 μL) were withdrawn at 0, 10, 20, 30, and 60 minutes. Test article samples were immediately combined with 300 μL of ice-cold acetonitrile containing 1% formic acid. Control samples were immediately combined with 400 μL of ice-cold 50/50 acetonitrile (ACN)/dH2O containing 0.1% formic acid and internal standard to terminate the reaction. Samples were then mixed and centrifuged to precipitate proteins. Calibration standards were prepared in matched matrix. Samples and standards were assayed by LC-MS/MS using electrospray ionization for both dosed prodrug and expected drug (PEA). Analytical conditions are outlined in Appendix 13-1. Test article concentration at each time point was compared to test article concentration at time 0 to determine the percent remaining at each time point. Halflives were calculated using GraphPad software, fitting to a single-phase exponential decay equation.

in vitro [5] = test: in vitro; remark: listed apart in the source
Method: as §2
as §4, with “for 5” for “for 3”, “and” for “and the”, “Appendix 10-1.” for “Appendix 13-1.”
as §4

[6] = male, Sprague-Dawley, rat, in vivo, po
Method: PEA was also dosed intravenously at 1 mg/kg. Blood samples were collected up to 8 hours post-dose, and PEA and PEA-prodrug plasma concentrations were determined with a qualified LC-MS/MS method. Pharmacokinetic analysis was conducted by a non-compartmental model using Phoenix WinNonlin v.6.4 software.
The IV dosing solution was prepared fresh on the day of dosing at 0.5 mg/mL in a vehicle comprised of 10% solutol HS15, 10% n-methylpyrrolidone (NMP), 10% polyethylene glycol 400 (PEG400), and 70% water. For PO dosing, torpac capsules were loaded with an appropriate amount of PEA, PEA-prodrug, or normast powder. […] The prodrug dose in group 5 was the maximum amount of powder that would fit into a single capsule.
The pharmacokinetics of PEA and the PEA-prodrug were evaluated in fasted male Sprague-Dawley rats. Rats were housed one per cage. Each rat was fitted with a jugular vein cannula (JVC) for blood collection. Rats intended for IV dosing were fitted with an additional JVC for dosing. Each study group was dosing in triplicate. Rats were fasted for a minimum of twelve hours prior to dosing. Food was returned at four hours post dosing. Animals had free access to water throughout the study.
Blood samples (˜300 μL) were collected from the rats via a JVC and placed into chilled polypropylene tubes containing sodium heparin as an anticoagulant, and 30 μL of 0.5 M citric acid. Samples were maintained chilled throughout processing. Blood samples were centrifuged at 4° C. and 3,000 g for 5 minutes. Plasma (˜150 μL) was then transferred to a chilled, labeled polypropylene tube containing 15 μL of 10% formic acid, placed on dry ice, and stored in a freezer maintained at −60° C. to −80° C.
Pharmacokinetic parameters were determined with Phoenix WinNonlin (v6.4) software using a non-compartmental model. Maximum plasma concentrations (C0) after IV dosing were estimated by extrapolation of the first two time points back to t=0. […] Area under the time concentration curve (AUC) was calculated using the linear trapezoidal rule with calculation to the last quantifiable data point, and with extrapolation to infinity if applicable. […] Mean residence time, MRT, was calculated by dividing the area under the moment curve (AUMC) by the AUC. Clearance (CL) was calculated from dose/AUC. Steady-state volume of distribution (Vss) was calculated from CL*MRT (mean residence time). Bioavailability was determined by dividing the individual PO dose normalized AUClast values by the average IV AUClast value. Any samples below the limit of quantitation were treated as zero for pharmacokinetic data analysis.
Measured concentrations of PEA in plasma samples were corrected by subtracting the concentration of PEA measured in the pre-dose samples. […] Any corrected values that were negative are reported as not determined (ND).

[7] = Simulated intestinal fluid stability, SIF containing pancreatin; format: in vitro ADME; conditions: for % Remaining of Initial (n = 1): 1 μM; for Measured Concentration of Drug: test article dosed at 1 μM
Method: (§5) Studies were carried out in simulated intestinal fluid containing pancreatin. Simulated intestinal fluid was prepared by dissolving 6.8 g of monobasic potassium phosphate in 1.0 L of water. Pancreatin was then added to the solution and the pH was adjusted to 6.8. A DMSO stock was first prepared for the test articles. Aliquots of the DMSO solution were dosed into 300 μL of matrix, which had been pre-warmed to 37° C., at a final test article concentration of 1 μM. An individual tube was dosed for each time point. At each time point (0, 15, 30, 60, and 120 minutes), 900 μL of ice-cold acetonitrile containing 1.0% formic acid was added to an individual tube. Starting time for each tube was staggered such that all timepoints would finish at the same time. After the conclusion of the experiment, tubes were mixed and then centrifuged at 3,000 rpm for 10 minutes. Calibration standards were prepared in matched matrix. […] Analytical conditions are outlined in Appendix 11-1.
as §5, with “prepared for test articles.” for “prepared for the test articles.”, “Aliquots of DMSO solution” for “Aliquots of the DMSO solution”, “individual tube. The starting time for” for “individual tube. Starting time for”, “that all time points would finish” for “that all timepoints would finish”, “in Appendix 14-1.” for “in Appendix 11-1.”

[8] = Summary of half life data (Table A), matrix not stated; format: in vitro ADME
[9] = system: patients with distal ulcerative colitis; conditions: cited from earlier work

- microsomal CLint (in vitro [1]; male, Sprague-Dawley, rat, s9, Clint, control compound): 20.1 µL/min/mg
- half-life (in vitro [1]; male, Sprague-Dawley, rat, s9, Half-life, control compound): 34 min
- microsomal CLint (in vitro [2]; both, human, s9, Clint, control compound): 943 µL/min/mg
- half-life (in vitro [2]; both, human, s9, Half-life (min)): 13 min
- half-life (in vitro [2]; both, human, s9, Half-life, control compound): 7.3 min
SMILES: O=c1ccc2ccc(O)cc2o1 [Compound 7-HC, 7-hydroxycoumarin, reference compound]

- CLint (in vitro [3]; dog): 0.512 ml/min/mg protein
- Half-life (in vitro [3]; dog): 1.4 min
- CLint (in vitro [3]; human): 0.0472 ml/min/mg protein
- Half-life (in vitro [3]; human): 15 min
- CLint (in vitro [3]; mouse): 0.313 ml/min/mg protein
- Half-life (in vitro [3]; mouse): 2.2 min
- CLint (in vitro [3]; rat): 0.362 ml/min/mg protein
- Half-life (in vitro [3]; rat): 1.9 min
SMILES: O=c1ccc2ccc(O)cc2o1 [Compound 7-hydroxycourmann]

- CLin (in vitro [1]): 0.0242 ml/min/mg protein
- CLint (in vitro [1]; rat, s9): 0.0320 ml/min/mg protein
- CLin (in vitro [4]): 0.138 ml/min/mg protein
- CLint (in vitro [4]; mouse, s9): 0.160 ml/min/mg protein
- CLin (in vitro [2]): 0.0522 ml/min/mg protein
- CLint (in vitro [2]; human, s9): 0.0698 ml/min/mg protein
- CLin (in vitro [5]): 0.0770 ml/min/mg protein
- CLint (in vitro [5]; dog, s9): 0.0799 ml/min/mg protein
SMILES: O=c1ccc2ccc(O)cc2o1 [Compound 7-hydroxycourmarin]

- Bioavailability [6]: 4.39%
- Dose-normalized AUC∞ (PEA) [6]: 4.81 kg·ng·h/mL/mg
- % Remaining of Initial (n = 1) ([7]; 0 min): 100%
- Measured Concentration of Drug ([7]; 0 min): 0.19 µM
- % Remaining of Initial (n = 1) ([7]; 15 min): 25%
- Measured Concentration of Drug ([7]; 15 min): 0.047 µM
- % Remaining of Initial (n = 1) ([7]; 30 min): <2.2%
- Measured Concentration of Drug ([7]; 30 min): 0 µM
- % Remaining of Initial (n = 1) ([7]; 60 min): <2.2%
- Measured Concentration of Drug ([7]; 60 min): 0 µM
- % Remaining of Initial (n = 1) ([7]; 120 min): <2.2%
- Measured Concentration of Drug ([7]; 120 min): 0 µM
- half-life at 1 μM ([7]; simulated intestinal fluid containing pancreatin, pH 6.8, 1 μM): 7.6 min
- half-life [8]: 7.5 min
SMILES: CCCCCCCCCCCCCCCC(=O)NCCOC(=O)CCC(=O)OC[C@H](COC(=O)CCC)OC(=O)CCC [Compound I-14]

- Bioavailability [6]: 3.42%
- % Remaining of Initial (n = 1) ([7]; 0 min): 100%
- Measured Concentration of Drug ([7]; 0 min): 0.18 µM
- % Remaining of Initial (n = 1) ([7]; 15 min): <2.2%
- Measured Concentration of Drug ([7]; 15 min): 0 µM
- % Remaining of Initial (n = 1) ([7]; 30 min): <2.2%
- Measured Concentration of Drug ([7]; 30 min): 0 µM
- % Remaining of Initial (n = 1) ([7]; 60 min): <2.2%
- Measured Concentration of Drug ([7]; 60 min): 0 µM
- % Remaining of Initial (n = 1) ([7]; 120 min): <2.2%
- Measured Concentration of Drug ([7]; 120 min): 0 µM
- half-life [8]: < 1 min
SMILES: CCCCCCCCCCCCCCCC(=O)NCCOC(=O)CCC(=O)OC[C@@H](COC(=O)CCC)OC(=O)CCC [Compound I-15]

SMILES: CCCC(=O)[O-].[Na+] [sodium butyrate]
- discharge of blood ceased ([9]; after butyrate irrigation): 9 of 10
- overall crypt proliferation ([9]; after butyrate irrigation): unchanged
- upper crypt-labeling index after butyrate irrigation ([9]; before 0.086±0.019): 0.032±0.003
- histological degree of inflammation after butyrate irrigation ([9]; before 2.4±0.3): 1.5±0.3
- endoscopic score after butyrate irrigation ([9]; before 6.5±0.4): 3.8±0.8
- stool frequency after butyrate irrigation ([9]; sodium butyrate 100 mmol/L enemas 2 weeks, 10 patients, before 4.7±0.5): 2.1±0.4 n/day
